Reference: patent publication US20180228853A1 (priority 2015, published 2018)
Read-outs that look alike come from different tables or passages of the source.

Legend:
[1] = test system: H1N1 virus strain A/PR/8/34; assay: microbe, parasite or virus in culture; format: cell-based, Influenza A (H1N1) virus; details: MDCK cells
[2] = test system: influenza or influenza-like illness; assay: Randomized, single-blind clinical study, treatment of influenza or influenza-like illness in combination with Tamiflu; format: in vivo, human
Description: Subjects were randomized and placed on a treatment regimen of five days. Group C contained 29 subjects that received 75 mg of Tamiflu® (Oseltamivir Phosphate) in capsule form two times a day for five days. Group D contained 29 subjects that received 75 mg of Tamiflu® (Oseltamivir Phosphate) in capsule form and two 175 mg lozenges of HSRx 351 two times a day for 5 days.
Subjects were also instructed to record any adverse events.
Statistical Analysis/Results—A survival analysis was performed to compare over time the Influenza symptom functions of groups C and D. The time dependent event for which survival and hazard functions were calculated was the final data collection visit for each subject. A Generalized Linear Mixed Model was run to test the hypothesis of fewer adverse events in the combination treatment Group D versus Tamiflu® (Oseltamivir phosphate) only treatment groups C. Parameter estimates such as beta weights and R2 were evaluated along with a P value significance level set at 5%.

[3] = test system: flu and/or flu like symptoms; details: 10 day regimen, 30 subjects per group
H1N1 virus particles = assay: Direct binding assay to H1N1 virus particles (DART TOF-MS); set-up: species or system Influenza A (H1N1) virus
Description: Further, direct binding of test biomarkers in HSRx 351 to influenza virus and hemagglutinin were evaluated using the methods described in Roscheck Jr 2009. […] The methodology used is described in Roschek Jr 2009.
Viral Particles—Briefly, H1N1 virus particles were incubated with HSRx 351 or synthetic biomarkers 6 or 7 analog, to allow binding of the compounds within HSRx 351. After incubation, unbound compounds were removed by washing the virus particles three times through a 100 kDa molecular weight cut off membrane filter (Amicon 100 kDa filter, Ultracel PL-100; Millipore Corp. Billerica, Mass.) with phosphate buffered saline (PBS). The virus particles were then collected and fixed in 100% EtOH. The fixed virus particles and the washed fractions containing the unbound chemicals were collected and analyzed directly by DART TOF-MS for comparison.

[4] = Influenza A virus, read-out: IC50
[5] = Influenza A virus, read-out: IC50 (μg/mL)
[6] = preliminary statistical results

CCOC(=O)C1=C[C@@H](OC(CC)CC)[C@H](NC(C)=O)[C@@H](N)C1 [Oseltamivir, oseltamivir]
IC50 [1, 4]: 0.32 µM
IC50 [1, 5]: 0.1 µg/mL

NC12CC3CC(CC(C3)C1)C2 [Amantadine, amantadine]
IC50 [1, 4]: 27 µM
IC50 [1, 5]: 4.1 µg/mL

CCOC(=O)C1=C[C@@H](OC(CC)CC)[C@H](NC(C)=O)[C@@H](N)C1 [Tamiflu ®, Oseltamivir Phosphate]
Adverse events attributed to study product ([2]; 29 subjects per group): 4 number of subjects
At least one symptom worsened by end of study ([2]; 29 subjects per group): 6 number of subjects
Multiple symptoms worsened by end of study ([2]; 29 subjects per group): 3 number of subjects
Symptoms failed to improve by end of study ([2]; 29 subjects per group): 2 number of subjects
Composite VAS assessment exceeding baseline VAS ([2]; five day treatment, preliminary results): baseline VAS = 126
% Average Reduction, Aches and pains [2, 6]: 64.46%
% Average Reduction, Composite [2, 6]: 63.83%
% Average Reduction, Degree of coughing [2, 6]: 67.74%
% Average Reduction, Fever reduction [2, 6]: 85.38%
% Average Reduction, Frequency of coughing [2, 6]: 50.38%
% Average Reduction, Mucus discharge in the respiratory tract [2, 6]: 54.63%
% Average Reduction, Nasal congestion [2, 6]: 66.35%
% Average Reduction, Quality of sleep [2, 6]: 57.89%
medically related adverse events reported [3]: Five

3-Hydroxyflavonone [Biomarker 7 analog]
binding to H1N1 virus particles (enrichment in the fixed virus samples over the washed fractions) (H1N1 virus particles): bind H1N1 virus particles
IC50 (μg/mL) [1]: 2.8 and μg/mL
IC50 ([1]; read-out: IC50): 8.7 µM
